Experimental data: article PMC5617977, “Antibacterial Activity and Toxicity of Analogs of Scorpion Venom IsCT Peptides” (Antibiotics, 2017)
“Also recorded” adds a separate entry of the source. Where no end group is shown, it is not given here.

Experiments:
[1] = system: Pseudomonas aeruginosa and Proteus mirabilis; conditions: printed as 100 or more than 200; ref Dai [21]; cited from earlier work
Description: (§1) Studies of bacterial inhibition carried out by Dai with IsCT1 and IsCT2 natural peptides show a range of MICs of 1 to 5 μg/mL for different strains of S. aureus and 10 to 25 μg/mL for two strains of Bacillus. For Gram-negative bacteria, they show 5 to 120 μg/mL for two strains of E. coli but 100 or more than 200 μg/mL for other strains of Gram-negative bacteria (Pseudomonas aeruginosa and Proteus mirabilis). Bacterial inhibition studies by Kim with IsCT show MICs of 6 μg/mL for E. coli and 3 μg/mL for S. aureus and, for the IsCT1K7 analog, the reported concentrations are 3 and 1.5 μg/mL ...

[2] = system: Bacillus cereus (ATCC# 11778); assay: Antibacterial activity, standard broth (liquid) dilution; assay type: cell-based; conditions: for MIC B. cereus: Luria Bertani broth, peptide 1, 10, 50, 100 μg/mL, 37 °C, 24 h, absorbance 600 nm, MIC interpolated at 0% bacterial growth, average of three independent experiments
Description: (§2) Antimicrobial activities were determined by standard broth dilution against two Gram-positive and three Gram-negative bacteria. In general, the MICs seem to be higher than the concentrations tested in our experiments (Table 3). Only Staphylococcus aureus and Escherichia coli seem to be inhibited with both natural peptides but also by the leucine substituted analogue, IsCT1L1, at concentrations lower than 25 μg/mL. […] Curiously, some peptides—such as IsCT1V1, IsCT1E7, or even natural IsCT1—when tested with Bacillus cereus show significant bacteria growth inhibition at concentrations lower than 10 μg/mL.
(§3) Two Gram-positive bacteria: Staphylococcus aureus (ATCC# 29213) and Bacillus cereus (ATCC# 11778); and three Gram-negative bacteria: Salmonella typhimurium (ATCC# 14028), Enterobacter aerogenes (ATCC# 13048), and Escherichia coli (ATCC# 25922) were tested.
(§4) Activity was determined by the standard liquid dilution method described previously. All results are the average of three independent experiments. Briefly, cells were grown overnight at 37 °C in Luria Bertani broth and diluted in the same medium for assays. Bacteria were added to serial dilutions of the peptides (final concentrations of 1, 10, 50, and 100 μg/mL) and incubated at 37 °C for 24 h. Cell growth was measured by UV absorbance at 600 nm. For each bacterium, a solution containing no peptide (concentration 0 μg/mL) was processed under identical conditions and used as control for 100% bacterial growth. MICs were obtained from interpolation of 0% bacterial growth from plots. Results are the average of three independent experiments.

[3] = system: Enterobacter aerogenes (ATCC# 13048); assay: as above; assay type: cell-based; conditions: Luria Bertani broth, peptide 1, 10, 50, 100 μg/mL, 37 °C, 24 h, absorbance 600 nm; MIC interpolated at 0% bacterial growth; average of three independent experiments
Description: as §2, §3, §4

[4] = system: Staphylococcus aureus (ATCC# 29213); assay: as above; assay type: cell-based; conditions: Luria Bertani broth, peptide 1, 10, 50, 100 μg/mL, 37 °C, 24 h, absorbance 600 nm; MIC interpolated at 0% bacterial growth; average of three independent experiments
Description: as §2, §3, §4

[5] = system: Escherichia coli (ATCC# 25922); assay: as above; assay type: cell-based; conditions: Luria Bertani broth, peptide 1, 10, 50, 100 μg/mL, 37 °C, 24 h, absorbance 600 nm; MIC interpolated at 0% bacterial growth; average of three independent experiments
Description: as §2, §3, §4

[6] = system: Salmonella typhimurium (ATCC# 14028); assay: as above; assay type: cell-based; conditions: Luria Bertani broth, peptide 1, 10, 50, 100 μg/mL, 37 °C, 24 h, absorbance 600 nm; MIC interpolated at 0% bacterial growth; average of three independent experiments
Description: as §2, §3, §4

human erythrocytes = assay: Hemolytic activity; assay type: cell-based; conditions: 1% human erythrocytes in 1× PBS, peptide 1, 10, 50, 100 μg/mL, 37 °C, 1 h, hemoglobin at 416 nm, 100% control 1% TritonX-100; average of two independent experiments
Description: Hemolytic activity was carried out as described previously. Briefly, serial concentrations of peptides (final concentrations of 0 as blank, 1, 10, 50, and 100 μg/mL) were added to 1% human erythrocytes in 1× PBS buffer. The cell suspensions were incubated at 37 °C for 1 h and then centrifuged to remove unlysed erythrocytes. Released hemoglobin was determined spectrophotometrically at 416 nm. The control for 100% release of hemoglobin was a sample of 1% erythrocyte incubated in PBS with 1% TritonX-100. Results are the average of two independent experiments.

S. aureus = conditions: ref Kim [16]; cited from earlier work
Description: as §1

E. coli = conditions: ref Kim [16]; cited from earlier work
Description: as §1

| Substance | MIC, other Gram-negative strains (Pseudomonas aeruginosa and Proteus mirabilis) [1] [µg/mL] | MIC B. cereus [2] [µg/mL] | MIC E. aerogenes [3] [µg/mL] | MIC S. aureus [4] [µg/mL] | MIC E. coli [5] [µg/mL] | MIC S. typhimurium [6] [µg/mL] | Hemolytic activity (in words) (human erythrocytes) | MIC S. aureus (S. aureus) [µg/mL] | MIC E. coli (E. coli) [µg/mL] | concentration showing significant bacteria growth inhibition, Bacillus cereus ([2]; inhibition at low concentration, then plateau or slight increase of growth at higher concentrations (Figure S2)) |
| --- | --- | --- | --- | --- | --- | --- | --- | --- | --- | --- |
| IFGAIWNGIKSLF-NH2 [IsCT2, reference compound] | ≥ 100 | 100 | >100 | 50 | 50 | 100 | highest hemolytic activity |  |  |  |
| ILGAAWNGAKSLF-NH2 [IsCT2A1, alanine substituted (positions 5 and 9) analog of IsCT2] |  | >100 | >100 | >100 | >100 | >100 |  |  |  |  |
| ILGAVWNGVKSLF-NH2 [IsCT2V1, valine substituted (positions 5 and 9) analog of IsCT2] |  | >100 | >100 | >100 | >100 | >100 |  |  |  |  |
| ILGKAWEGAKSLF-NH2 [IsCT1A1] |  | >100 | >100 | >100 | >100 | >100 |  |  |  |  |
| ILGKIWEGIESLF-NH2 [IsCT1E7] |  | >100 | >100 | >100 | >100 | >100 | no toxicity at all; also recorded: do not have any apparent citotoxicity; also recorded: no apparent cytotoxicity |  |  |  |
| ILGKIWEGIKSLF-NH2 [IsCT1, reference compound] | ≥ 100 | >100 | >100 | 50 | 50 | 100 | highest hemolytic activity | 3 | 6 | lower than 10 μg/mL |
| ILGKIWKGIKSLF-NH2 [IsCT1K7] |  | >100 | >100 | 100 | >100 | 100 | highest hemolytic activity |  |  |  |
| ILGKLWEGLKSLF-NH2 [IsCT1L1] |  | >100 | >100 | 50 | 50 | 100 | highest hemolytic activity; also recorded: toxicity similar to the wild type peptides |  |  |  |
| ILGKVWEGVKSLF-NH2 [IsCT1V1] |  | >100 | >100 | >100 | >100 | >100 |  |  |  |  |
